Results as given in a melting point compilation (Tetko et al.; mined from patent text by program, amines drawn as free bases though some values may be those of a salt).

melting point	SMILES
236 °C	C=CCN1CCN(c2cc3c(cc2F)c(=O)c(C(=O)O)cn3CC)CC1
164 to 165 °C	C1=Nc2c(cnc3ccccc23)OC12CCCCC2
154 to 155 °C	CSc1cc2c(cc1C(F)(F)F)N(C(=O)Nc1cccc(-c3csc(-c4cccnc4)n3)c1)CC2
156 to 158 °C	Cc1[nH]nc(Oc2c(Cl)cc(C(F)(F)F)cc2Cl)c1Cl
148 to 151 °C	CCCCC(=O)OC(C)OC(=O)NC1(C(=O)O)CC1 (stereo not given)
144 °C	CCC(=O)N(Cc1ccc(OC(F)(F)F)cc1)c1cc(Cl)cc(-c2nnn[nH]2)c1
171 to 173 °C	O=C(O)Cc1ccc2c(c1)C(=O)Cc1ccccc1C2
149 to 151 °C	COC(=O)C1CN(C(=O)c2ccc(OC(F)(F)F)cc2)c2cc(Cl)ccc2CN1S(=O)(=O)c1ccc(OC)cc1 (stereo not given)
> 300 °C	CCN(CC)C(=O)N1CCc2c([N+](=O)[O-])cc3[nH]c(=O)c(=O)[nH]c3c2C1
169 to 174 °C	CCOc1c([C@@H]2C[C@@H]2/C=C/C(C)=C/C(=O)O)cc(C(C)(C)C)cc1C(C)(C)C (racemic)
169 to 170 °C	O=C1N(CC2CCCO2)c2c(F)cccc2C12COc1cc3c(cc12)CCO3 (stereo not given)
222 to 223 °C	O=C(O)C1=Cc2c(F)ccc(Br)c2OC1C(F)(F)F (stereo not given)
265 to 267 °C	O=C1Nc2ccc(O)cc2Sc2ccccc21
81 to 82 °C	CC#CCn1nc(-c2ccc(F)cc2)c(-c2ccc(S(C)(=O)=O)cc2)cc1=O
153 °C	CCCNc1nc(N)nc2c1ncn2C1CC(F)C(CO)O1 (stereo not given)
73 to 74 °C	Cc1cc(CC(=O)c2ccccc2)on1
132 °C	COCCOc1ccc(/C=C/C(=O)O)c(Oc2ncc(C(F)(F)F)cc2Cl)c1

Second part, the compound before the results:

SMILES	melting point
CCOC(=O)C1C(=O)C=C(OCC)CC1c1ccc(C)cc1 (stereo not given)	75 to 77 °C
COCCO[C@@H]1c2ccn3c(C)c(C)nc3c2N[C@H](c2ccccc2)[C@H]1OC(=O)OC	176 to 177 °C
COc1cc(O)c(C=O)cc1C12CC3CC(CC(C3)C1)C2	191 to 193 °C
CN1CCC(C)(O)c2cccc(CSc3nc4ccccc4[nH]3)c21 (stereo not given)	156 to 157 °C
COc1ccc(-c2ccccc2-c2ccc(S(C)(=O)=O)cc2)cc1F	136 to 137 °C
Clc1ccc2c(c1)C(c1ccccc1Cl)=CCc1nnc(Br)n1-2	234 °C
CCN1CCc2cc([N+](=O)[O-])ccc21	97 to 98 °C
Cc1sc(-c2ccccc2)nc1COc1ccc(C#N)cn1	124 to 125 °C
CC(C)(C)Cc1nc2cc(S(=O)(=O)c3ccccc3)ccc2n1CC1CC1	173 °C
CN1c2ccc(C#CCOC3CCCCO3)cc2C(=O)CS1(=O)=O (stereo not given)	107 to 108 °C
Cc1nc(-c2ccccc2)nc(-c2cccc([N+](=O)[O-])c2)c1C(C)Br (stereo not given)	133 to 134 °C
CCN(CC)C(=O)n1cc(C(F)F)c(S(=O)(=O)c2cc(Cl)cc(Cl)c2)n1	112 to 113 °C
COc1cc2c(cc(C(=O)OCc3ccccc3)n2CCC#N)c(C)c1C	140 °C
Cc1nn(-c2c(Cl)cc(C(F)(F)F)cc2Cl)c(N)c1C=O	169 to 172 °C
COc1ccc(CCC(=O)O)cc1OCCCc1cn(-c2ccc(C(F)(F)F)cn2)nc1C(C)C	93 to 94 °C
CC(=O)NC(n1cncn1)C(Cl)(Cl)CCl (stereo not given)	135 °C
Cc1ccccc1-c1c(C2CCN(C)CC2)[nH]c(=O)c2ccccc12	249 to 251 °C
CCn1c(=O)c2[nH]c(/C=C/c3ccc(OC)c(Br)c3)nc2n(CC)c1=O	> 280 °C
Cc1cc(O)c2cccc(OCc3c(Cl)ccc([N+](=O)[O-])c3Cl)c2n1	255 to 258 °C
O=C(O)c1ncn2c1[C@@H]1CCN1C(=O)c1c(Cl)cccc1-2	244 to 245 °C
CSC(CC(=O)c1cc(Cl)c(C)c(Cl)c1)C(=O)O (stereo not given)	158 to 160 °C
COc1ccc2cccc(NC(C)=O)c2c1	154 to 155 °C
Cn1cc(-c2ccccc2)c(=O)c(-c2cccc(C(=O)O)c2)c1	265 to 267 °C
